The results in this text go back to publication PMC6511888, “Synthesis, Biological Evaluation, and Molecular Modeling Studies of New Thiadiazole Derivatives as Potent P2X7 Receptor Inhibitors” (Frontiers in Chemistry, 2019).

One data set concerns the target T1, P2X7R (Mus musculus, UniProt Q9Z1M0).
T1 construct: plated for 24 h before dye uptake assays, whole-cell patch clamp experiments, and IL-1β release assays; endogenous in cells; host or cells: mouse (Swiss Webster) peritoneal macrophages
T1 sequence (Q9Z1M0 1-595): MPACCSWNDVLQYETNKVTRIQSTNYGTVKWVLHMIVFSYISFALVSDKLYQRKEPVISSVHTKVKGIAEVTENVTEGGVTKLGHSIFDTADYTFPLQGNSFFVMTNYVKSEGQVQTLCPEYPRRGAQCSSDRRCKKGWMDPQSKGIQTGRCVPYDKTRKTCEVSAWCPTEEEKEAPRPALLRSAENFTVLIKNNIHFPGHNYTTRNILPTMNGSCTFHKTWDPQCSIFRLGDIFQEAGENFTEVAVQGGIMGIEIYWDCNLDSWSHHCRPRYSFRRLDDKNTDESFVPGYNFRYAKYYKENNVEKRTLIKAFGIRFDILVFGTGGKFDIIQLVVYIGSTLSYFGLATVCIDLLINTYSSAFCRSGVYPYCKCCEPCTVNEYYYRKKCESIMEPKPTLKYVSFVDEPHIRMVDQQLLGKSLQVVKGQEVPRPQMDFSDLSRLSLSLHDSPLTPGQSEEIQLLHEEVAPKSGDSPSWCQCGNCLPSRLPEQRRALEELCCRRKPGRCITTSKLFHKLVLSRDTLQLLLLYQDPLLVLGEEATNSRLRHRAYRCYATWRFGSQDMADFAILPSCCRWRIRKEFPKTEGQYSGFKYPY
The experiment in a line: Dye uptake assay (propidium iodide) in mouse peritoneal macrophages. The format is cell-based. To be noted: mean ± SD; for IC50: propidium uptake assay, mice peritoneal macrophages; for inhibition at 10 µM: percentage relative to the maximum uptake of propidium stimulated by 1 mM ATP only. The method, then: Our protocols adhered to the Ethical Principles in Animal Experimentation adopted by the Brazilian College of Animal Experimentation and approved by the FIOCRUZ Research Ethics Committee (Faria et al., [2005]; number L039- 2016). Male mouse (Swiss Webster) peritoneal macrophages were collected from peritoneal cavity lavage and plated for 24 h before dye uptake assays, whole-cell patch clamp experiments, and IL-1β release assays.
HEK-293 cells transfected with hP2X7R and mouse peritoneal macrophages were plated at 2.5 × 10^6 or 5 × 10^5 cells/ml, respectively, in 96-well culture plates containing DMEM with 10% FBS and anti-biotics (50 U/ml penicillin and […] streptomycin) in a humidified 5% CO2 atmosphere at 37°C for 24 h (Faria et al., [2018]).
[…] In the last 5 min of ATP incubation, propidium iodide for macrophages (PI; 750 nM) or ethidium bromide (EB; 25 μM) for HEK-293 cells was added to all wells. PI dye was excited at a wavelength of 530 nm, and its fluorescence emission was read at a wavelength of 590 nm using an M5 plate reader (Molecular Devices). EB dye was excited at a wavelength of 530 nm and emitted at a wavelength of 620 nm.

Data set [1] is described as follows: LDH release assay (toxicity). The format is cell-based, mouse. To be noted: mouse peritoneal macrophages; for IC50 at 24 h: read-out: Macrophages IC50 (toxic effect); for CC50 at 24 h: mouse, peritoneal macrophages, toxicity measured for 24 h. The method, then:
(§1) Mouse peritoneal macrophages (5 × 10^5 cells) and HEK-293 cells transfected with P2X7R (5 × 10^5 cells) were plated in a 96-well-plate for 24 h before the treatment. […] The supernatant collected in this assay was used to measure the presence of LDH in the media using a cytotoxicity detection kit (Sigma kit for LDH) according to the manufacturer's instructions (Faria et al., [2018]).

For data set [2], the system named is mouse peritoneal macrophages. The experiment in a line: LDH release assay (toxicity). The format is cell-based. To be noted: 10 μM; relative to maximum LDH release caused by 0.05% Triton X-100; cell type not given; mean ± SD. The method, then:
as §1

Data set [3] is described as follows: Stability in human liver microsomes. The format is in vitro ADME. To be noted: pH 7.4, read-out: LM stability human (CLint). The method, then:
Thiadiazole 9f stability was evaluated in liver microsomes from male mice and humans according to Faria et al. in 2018 (Faria et al., [2018]). Both solutions contained a final protein concentration of 0.5 mg/ml (0.1 M phosphate buffer) at pH 7.4. Microsomes were preincubated with 9f (1 μM) and DMSO ([…]) at 37°C before NADPH (1 mM) addition. A control for the reaction was a buffer containing 0.1 M phosphate at pH 7.4 in a final volume of 50 μl. Diazepam and verapamil were used as positive controls for mice and humans, respectively. Both types of microsomes were treated with 9f for 0, 5, 15, 30, and 45 min and the negative control [minus Nicotinamide adenine dinucleotide phosphate (NADPH)] for 45 min. To stop the reactions, methanol (50 μl) was added at the appropriate time points, and the samples were centrifuged (1,640 × g) for 20 min at 4°C to […] protein precipitation.
In vitro intrinsic clearance (CLint mic) for the metabolism of 9f in mouse and human liver microsomes was calculated using the equations below:
Half-life (t1/2) (minutes) = 0.693/k (1)
V(μL/mg) = volume of the incubation solution (μl)/protein in the incubation solution (mg) (2)
Intrinsic clearance (CLint) (μl/minutes/mg protein) = V × 0.693/t1/2 (3) according to the manufacturer's instructions.

Data set [4] can be described thus: Distribution coefficient (Log D) in octanol/PBS pH 7.4. The data set is classed as physicochemical. To be noted: average of three experiments, read-out: Log D7.4. The method, then:
Octanol and Phosphate-buffered saline (PBS) solution at a ratio of 1:1 (v/v) at pH 7.4 was shaken mechanically for 24 h to reach presaturation. Crescent octanol volumes (100–400 μl) were added to PBS (396 μl) and thiadiazole 9f (25 mM) in a volume of 4 μl. This solution was shaken for 2 h and centrifuged (3,000 rpm) for 5 min, and the PBS layer was collected 1 h later. To measure the PBS layer absorbance, a 100-μl aliquot (396 μl of PBS containing 4 μl of 9f + 400 μl of acetonitrile) was partitioned with acetonitrile (100 μl; Faria et al., [2018]).

The compound `COc1ccc(CC(=O)NC(NC(=NC#N)Nc2cccc3ncccc23)C(C)(C)C)cc1OC` (stereo not drawn) [Compound A740003, N-(1-{[(cyanoimino)(5-quinolinylamino)methyl]amino}-2,2-dimethylpropyl)-2-(3,4-dimethoxyphenyl)acetamide] registered an IC50 at P2X7R of 0.108 ± 0.016 µM. Besides, in data set [1], the IC50 at 24 h is 325 ± 6 µM.
With `CCOC(=O)c1cnn(-c2nnc(-c3ccccc3Cl)s2)c1N` [Compound 9f], at P2X7R, the inhibition at 10 µM came out at 15.7 ± 0.6% and the IC50 is 0.016 ± 0.002 µM. In addition, in data set [1], the IC50 at 24 h is 6080 ± 102 µM and the CC50 at 24 h was 3900 µM. Further, the “% LDH release” value in data set [2] was 42.5 ± 0.4%. Besides, in data set [3], the microsomal CLint at 1 μM is 39.5 µL/min/mg. The logD in data set [4] was -3.7 ± 0.2.
On P2X7R, `N#Cc1cnn(-c2nnc(-c3ccccc3Cl)s2)c1N` [Compound 9b] displayed an inhibition at 10 µM of 30 ± 0.6% and an IC50 of 0.111 ± 0.009 µM. Moreover, in data set [1], the IC50 at 24 h is 2270 ± 86 µM and the CC50 at 24 h was found to be 2270 µM. The “% LDH release” value in data set [2] is listed as 15.8 ± 1.3%. For the same compound, the microsomal CLint at 1 μM in data set [3] is 26.4 µL/min/mg. In addition, the logD in data set [4] is -1.2 ± 0.1.
On to `Cc1cc(C)n(-c2nnc(-c3ccc(F)cc3)s2)n1` [Compound 11c, 2-(3,5-dimethyl-1H-pyrazol-1-yl)-5-(4-fluorophenyl)-1,3,4-thiadiazole], for which, on P2X7R, testing at 10 µM gave an inhibition of 29.2 ± 0.3% and half-maximal inhibition (IC50) was put at 0.122 ± 0.013 µM. For the same compound, in data set [1], the IC50 at 24 h was determined as 3240 ± 201 µM and the CC50 at 24 h was 3240 µM. The “% LDH release” value in data set [2] is recorded as 24 ± 1.7%. Moreover, the microsomal CLint at 1 μM in data set [3] turned out to be 46.7 µL/min/mg. For the same compound, the logD in data set [4] is -4.2 ± 0.4.
At P2X7R, `N#Cc1cnn(-c2nnc(-c3ccc(F)cc3)s2)c1N` [Compound 9c] showed an inhibition at 10 µM of 28.2 ± 0.7% and an IC50 of 0.109 ± 0.011 µM. For the same compound, in data set [1], the IC50 at 24 h was found to be 3900 ± 77 µM and it took 6080 µM to reach half-maximal cytotoxicity (CC50 at 24 h). Also, the “% LDH release” value in data set [2] was 10 ± 0.7%. The microsomal CLint at 1 μM in data set [3] was found to be 18.6 µL/min/mg. Besides, the logD in data set [4] is -0.9 ± 0.1.
